Data published in a melting point compilation (Tetko et al.; mined from patent text by program, amines drawn as free bases though some values may be those of a salt).

First: CCCCC1=NC2(CCCC2)C(=O)N1Cc1ccc(-c2ccccc2S(=O)(=O)Nc2noc(C)c2C)c(CCC)c1
Second: CCc1cc(S(=O)(=O)N(C)C)ccc1-c1cnc2[nH]c(CCc3cc(OC)ccn3)nc2c1
The melting point of the first is lower: 64 to 66 °C for the first, 179 to 180 °C for the second.

First: N=C(Nc1ccc(Cl)cc1)Nc1ncccc1OCc1c(F)cccc1F
Second: O=C(Nc1ccc(Cl)cc1)C(F)(F)C(O)(Cn1cncn1)c1ccc(F)cc1F (stereo not given)
The melting point of the first is higher: 146 to 148 °C for the first, 86 to 87 °C for the second.

First: Cn1c(CNC[C@H]2CCCO2)cc2cc(NC(=O)c3ccc(OCC4CC4)cc3)ccc21
Second: CCCN1CCC(C(=O)Nc2ccc(CN(C)C3CCOCC3)cc2)=Cc2cc(Br)ccc21
The melting point of the first is higher: 138 to 139 °C for the first, 134 to 136 °C for the second.

First: COc1cccc(O)c1-c1ccc(C[C@H](NC(=O)c2c(Cl)cccc2Cl)C(=O)O)cc1
Second: COc1ccccc1C(=O)c1[nH]c2cc(Cl)ccc2c1CC(=O)O
The melting point of the first is higher: 224 °C for the first, 214 to 217 °C for the second.

Compared with C[Si](C)(c1ccccc1)c1ccccc1CO, Cc1c(-c2ccccc2)oc2c(C(=O)CBr)cccc2c1=O is higher in melting point: 53 to 54 °C for the first, 134 to 135 °C for the second.

Compared with CC(C)Cn1c(=O)n(C)c(=O)c2c(S(=O)(=O)N3CC[C@@H](O)C3)c(Cc3cccnc3)sc21, CNC(=S)NCCn1c(=O)ccc2c(C)cc(C)nc21 is higher in melting point: 161 to 162 °C for the first, 216 to 218 °C for the second.

First: COc1cccc(NS(=O)(=O)c2cccc(C=CC(=O)NO)c2)c1
Second: Cc1ccc(S(=O)(=O)Nc2ccccc(=O)c2O)cc1
The melting point of the first is lower: 137 °C for the first, 177 to 179 °C for the second.

First: COc1ccc(-c2csc(Nc3ccccc3)n2)cc1OC
Second: CNC(=S)Nc1nc(C(C)c2ccc(-c3ccccc3)c(F)c2)cs1 (stereo not given)
The melting point of the first is lower: 170 to 174 °C for the first, 180 to 181 °C for the second.

Compared with CC12CCCC1C1CCc3cc(C(=O)O)ccc3C1CC2 (stereo not given), C[C@]12CC[C@H]3[C@@H](CCC4=CC(=O)CC[C@@H]43)[C@@H]1CCC21CC(O)CO1 (stereo not given in full) is lower in melting point: 235 to 240 °C for the first, 149 to 154 °C for the second.

First: CCCCOc1ccc2[nH]n(Cc3ccccc3)c(=O)c2c1
Second: CCOC(=O)c1ccc(NC(=O)c2ccc(OCCCCc3ccccc3)cc2)c(O)c1
The melting point of the first is lower: 146 to 147 °C for the first, 156 to 158 °C for the second.

First: O=C(CCl)c1ccc2c(c1)[C@H](NC(=O)C(F)(F)F)CC2
Second: O=C(c1ccc(N2CCOCC2)cc1O)C(F)(F)F
The melting point of the first is higher: 166 to 167 °C for the first, 81 to 82 °C for the second.

First: CC(C)NC(=O)NCC(=O)O
Second: COC(=O)NC(CCSC)C(N)=O (racemic)
The melting point of the first is higher: 178 °C for the first, 93 to 94 °C for the second.

Compared with COCCNC(=O)c1ccc(C)c(-n2c(C)cc(OCc3ccccc3CNC(=O)Nc3cc(C(C)(C)C)nn3-c3ccc(Cl)c(O)c3)c(Cl)c2=O)c1, CC(=O)NCC(C)(C)c1ccc(C(=O)Nc2cn3cc(-n4ccnc4)ccc3n2)cc1 is higher in melting point: 182 to 183 °C for the first, 242 to 244 °C for the second.

First: Cc1[nH]c(=O)cc2c1CC(c1ccncc1)CC2 (stereo not given)
Second: N#Cc1ccc(-c2c[nH]nc2C(F)(F)F)cc1SCC1CCC1
The melting point of the first is higher: > 300 °C for the first, 102 to 103 °C for the second.

First: COc1ccccc1CNc1ccc2cc(Nc3ncccn3)ccc2n1
Second: CCn1c(=O)ccc2cnc(Nc3ccc(OC)c(F)c3)nc21
The melting point of the first is lower: 175 °C for the first, 196 to 198 °C for the second.

First: CC12CC(c3ccc(OS(=O)(=O)C(F)(F)F)cc3)C3C4CCC5(CC4=CCC3C1CCC2=O)OCCO5 (stereo not given)
Second: Cc1nc2cc(-c3ccc(C=C4SC(=O)NC4=O)cc3)cc(C34CC5CC(CC(C5)C3)C4)c2o1
The melting point of the first is lower: 208 to 210 °C for the first, 354 to 360 °C for the second.

Compared with CC(=O)SC(CC(=O)c1ccc(Oc2cccc(Cl)c2)cc1)C(=O)O (stereo not given), CCC/C(=C\C=C\C(=O)Oc1ccc([N+](=O)[O-])cc1)c1ccc(OC)cc1 is lower in melting point: 122 to 125 °C for the first, 90 to 92 °C for the second.

Compared with COC(=O)CCCC(=O)c1ccc(CCNC(C)=O)cc1, CCCc1c(OCC(O)CSc2ccc(C(=O)CCC(=O)O)c(O)c2)ccc(C(C)=O)c1O (stereo not given) is higher in melting point: 107 to 108 °C for the first, 150 °C for the second.

First: CCON=C(CC)C1=C(O)CC(c2ccc(NC=O)cc2)CC1=O (stereo not given)
Second: CCCCCCCCC1(C)SC(=O)C=C1OCC(=O)Nc1ccc(OC)cc1 (stereo not given)
The melting point of the first is higher: 111 to 114 °C for the first, 99 °C for the second.

Compared with COc1ccc2[nH]c(-c3cc4cccnc4n3S(=O)(=O)c3ccc(C)cc3)cc2c1, COC(=O)CCc1cc2nc(Cl)ccc2n1S(=O)(=O)c1cccc2cccnc12 is lower in melting point: 226 to 227 °C for the first, 120 °C for the second.

First: O=C(O)CCCC#CCC1=CC(O)CC1=O (stereo not given)
Second: O=C(O)COC(=O)c1ccccc1O
The melting point of the first is lower: 65 to 71 °C for the first, 131 to 132 °C for the second.

First: N#CC(C#N)=C1N(CCCN2CCCCC2)CCN1CCN1CCc2ccccc2C1
Second: O=C(Cc1ccc2c(c1)OCO2)N[C@H]1CC[C@H](CCN2CCN(c3nccc4c3CCO4)CC2)CC1
The melting point of the first is lower: 101 to 102 °C for the first, 212 °C for the second.

First: ON=C1CCCc2c1c1cccc3c1n2CC3
Second: Ic1c2n(c3ccc(OC4CC4)cc13)CCC2
The melting point of the first is higher: 271 to 272 °C for the first, 104 to 105 °C for the second.

First: Nc1ncc(-c2ccc(F)c(Cl)c2)nc1C(=O)Nc1cccnc1
Second: O=C(Nc1ccc2ccc(Cl)nc2n1)c1cccs1
The melting point of the first is lower: 236 to 238 °C for the first, 244 °C for the second.

First: Oc1ccc(-c2ccc(C#CC3(O)CN4CCC3CC4)cc2)cc1 (stereo not given)
Second: Clc1ccc(C2CCN3c4ccccc4C4=NCCN4C23)cc1 (stereo not given)
The melting point of the first is higher: 230 to 233 °C for the first, 158 to 160 °C for the second.

Compared with CC(C)(C)N(NC(=O)c1ccccc1)C(=O)c1ccncc1, COC(=O)c1cc(C(=O)OC)cc(P(=O)(c2ccccc2)c2ccccc2)c1 is lower in melting point: > 210 °C for the first, 170 to 171 °C for the second.

First: CNS(=O)(=O)Oc1ccccc1
Second: CC(C#N)(COc1ccc(Cl)cc1)NS(=O)(=O)Cc1ccccc1 (stereo not given)
The melting point of the first is lower: 43 to 45 °C for the first, 120 to 121 °C for the second.

First: Cc1cc(-c2nc(-c3c(F)cccc3Cl)nn2C)ccc1-c1ccc(OC(F)(F)F)cc1
Second: CCSc1ccc(-c2c(Cl)ncn2-c2ccc(S(C)(=O)=O)cc2)cc1
The melting point of the first is lower: 117 to 122 °C for the first, 181 to 185 °C for the second.

First: COC(=O)CCC(C)C1CCC2C3C(C(C)=O)CC4CC(C(C)=O)CCC4(C)C3C=CC12C (stereo not given)
Second: CC(C)(C)NC(=O)c1nn(-c2ccc(F)cc2F)c2c1CC1CC2C1(C)C (stereo not given)
The melting point of the first is lower: 137 to 139 °C for the first, 168 to 171 °C for the second.

First: O=C1NC(=O)C(Cc2ccc(OCCn3ccc4cccnc43)cc2)S1 (stereo not given)
Second: Cc1oc(-c2cc3ccccc3o2)nc1COc1ccc(CCCC2OC(=O)NC2=O)cc1 (stereo not given)
The melting point of the first is higher: 200 to 202 °C for the first, 165 to 166 °C for the second.

Compared with CC(C)N1C(=O)N(c2ccccc2Cl)CSC1=NC(C)(C)C, CC(C)(C)OC(=O)N1CCn2c(c(C(=O)O)c(C#N)c2-c2ccccc2)C1 is higher in melting point: 88 to 89 °C for the first, 212 to 215 °C for the second.

First: CC(Oc1cccc2ccoc12)C(N)=NO (stereo not given)
Second: COc1ccc2cc(C(=O)Cl)oc2c1
The melting point of the first is lower: 92 to 94 °C for the first, 96 to 99 °C for the second.

Compared with Cc1oc(-c2ccccc2)nc1CCc1noc2cc(CC(Sc3ccccc3)C(=O)O)ccc12 (stereo not given), O=S(c1ccccc1)C1COc2ccc(OCc3ccc4ccccc4n3)cc2C1O (stereo not given) is higher in melting point: 145 to 147 °C for the first, 174 to 176 °C for the second.

First: NC(=O)CN1CCN(C(=O)Cc2ccc(OC(=O)c3ccc([N+](=O)[O-])cc3)cc2)CC1
Second: O=C(Nc1ccc2c(c1)C(=O)NC2=O)C(=O)N1CCC(Cc2ccccc2)CC1
The melting point of the first is lower: 192 to 196 °C for the first, 239 to 241 °C for the second.

First: COc1cc(Nc2c(C#N)cnc3c2sc2ccc([N+](=O)[O-])cc23)c(C)cc1Cl
Second: O=[N+]([O-])c1cc(Br)cc2c1[nH]c1ccc(Br)cc12
The melting point of the first is higher: > 305 °C for the first, 252 to 256 °C for the second.

First: CC(C)(C)c1cc2c(c(C(C)(C)C)c1)OC(=O)C2c1ccc(C(F)(F)F)cc1 (stereo not given)
Second: Cc1cc(C(F)(F)F)ccc1NC(=O)C(C)(C)C
The melting point of the first is higher: 127 to 128 °C for the first, 111 to 114 °C for the second.

First: CCOC(=O)NC(=S)N1CC1C#N (stereo not given)
Second: CCOC(=O)CNc1cc(C(F)(F)F)ccc1C#N
The melting point of the first is higher: 152 to 155 °C for the first, 98 to 101 °C for the second.

First: CC(C)c1nn(-c2ccc(C(F)(F)F)cn2)cc1CCCOc1c(CC(=O)O)cnn1C
Second: CC(O)c1ccnc(C(=O)c2[nH]c3cc(Cl)ccc3c2CC(=O)O)c1 (stereo not given)
The melting point of the first is lower: 146 to 148 °C for the first, 193 to 194 °C for the second.

First: Cn1cncc1C1SCCCS1
Second: CCc1nc2c(nc1O)CCCC2
The melting point of the first is lower: 112 °C for the first, 152 to 153 °C for the second.

First: CC(C)(C)Sc1c(CC(C)(C)C(=O)O)n(Cc2ccc(Cl)cc2)c2ccc(OCc3ccccn3)cc12
Second: O=C(O)c1ccc(-n2c(SCc3ccc(Cl)cc3)nc3ccc(Cl)cc32)cc1
The melting point of the first is lower: 189 to 190 °C for the first, 265 to 266 °C for the second.

First: CC(C)Cn1cnc2c(O)nc3ccccc3c21
Second: CCCc1ccc(OCCC(C)C)cc1O
The melting point of the first is higher: > 300 °C for the first, 40 to 40.5 °C for the second.

First: CCOC(=O)c1c(C)nc2snnc2c1NC(C)C
Second: CCOC(=O)c1c(O)cc(C(F)(F)Cl)nc1C(F)(F)F
The melting point of the first is higher: 62 to 65 °C for the first, 56.5 to 58.5 °C for the second.

First: CCOC(=O)c1cn(CC)c2cc(-c3cc(C)nc(C)c3)c(F)cc2c1=O
Second: CC(C)(C)OC(=O)Cn1cc(Cl)c(-c2cc(Cl)cc(Cl)c2)n1
The melting point of the first is higher: 221 to 224 °C for the first, 86 °C for the second.

First: NC(=S)c1[nH]c2ccc(Cl)cc2c1S(=O)(=O)c1ccccc1
Second: Cc1ccc2c(c1)C(C(=S)Nc1c(C(C)C)cccc1C(C)C)c1ccccc1CO2 (stereo not given)
The melting point of the first is higher: 207 to 210 °C for the first, 140 °C for the second.

First: O=c1cc(Cl)c2nc3ccc(F)cc3sc-2c1Cl
Second: C=Cc1cc(O)cc2nc(-c3ccc(O)cc3)oc12
The melting point of the first is lower: 245 to 247 °C for the first, 249 to 250 °C for the second.

First: CC(C)(C)OC(=O)Nc1cc(N2CCC(OCCOC3CCCCO3)CC2)c(-c2ccc(F)cc2)cc1NC(=O)CC(=O)c1cccc(-n2ccnc2)c1 (racemic)
Second: C[C@@H](NC(=O)c1c[nH]c2ncc(-c3nn(CCO)c4cc(Cl)ccc34)nc12)C(=O)N1CC(C#N)C1
The melting point of the first is lower: 57 to 58 °C for the first, 225 to 250 °C for the second.

Compared with CCc1noc(C)c1C(=O)Nc1cccc(F)c1, COC(=O)NN=C1CCc2ccccc21 is higher in melting point: 99.5 to 101 °C for the first, 155 to 156 °C for the second.

First: COCC(=O)OC(n1cc(C#N)c(-c2cccc(Cl)c2Cl)c1)C(Cl)(Cl)Cl (stereo not given)
Second: N#CC(NC(=O)c1cccc(Cl)c1)n1ccnn1 (stereo not given)
The melting point of the first is lower: 88 to 90 °C for the first, 157 to 159 °C for the second.

Compared with O=C1CCOc2c(Cl)cc(Br)cc21, CCN1C(=O)C(C)(C)C(=O)Nc2cc(C#N)ccc21 is higher in melting point: 109 °C for the first, 215 to 218 °C for the second.

First: O=C(O)C1OCc2ccccc2O1 (stereo not given)
Second: C/C(=C\c1ccc(OCCN(C)C)cc1)c1ccc2c(c1)C(C)(C)CCS2
The melting point of the first is higher: 88 °C for the first, 81 to 82 °C for the second.
